Key:
Type in all cases: subcellular
[1] = biological target: Sodium-dependent dopamine transporter (Rattus norvegicus) (UniProt P23977); assay: Inhibition of re-uptake of [3H]dopamine at DAT in Wistar rat corpus striatum synaptosomes by liquid scintillation counting relative to untreated control; conditions: concentration not given here
[2] = biological target: Transporter (Rattus norvegicus) (UniProt F1LNR9); assay: Inhibition of re-uptake of [3H]noradrenaline at NET in Wistar rat hippocampal synaptosomes by liquid scintillation counting relative to untreated control; conditions: Hippocampus, concentration not given here
[3] = biological target: Sodium-dependent serotonin transporter (Rattus norvegicus) (UniProt P31652); assay: Inhibition of re-uptake of [3H]5-hydroxytryptamine at SERT in Wistar rat cortical synaptosomes by liquid scintillation counting relative to untreated control; conditions: concentration not given here

Measured: inhibition

Sequence of Sodium-dependent serotonin transporter (Rattus norvegicus) (P31652 whole entry): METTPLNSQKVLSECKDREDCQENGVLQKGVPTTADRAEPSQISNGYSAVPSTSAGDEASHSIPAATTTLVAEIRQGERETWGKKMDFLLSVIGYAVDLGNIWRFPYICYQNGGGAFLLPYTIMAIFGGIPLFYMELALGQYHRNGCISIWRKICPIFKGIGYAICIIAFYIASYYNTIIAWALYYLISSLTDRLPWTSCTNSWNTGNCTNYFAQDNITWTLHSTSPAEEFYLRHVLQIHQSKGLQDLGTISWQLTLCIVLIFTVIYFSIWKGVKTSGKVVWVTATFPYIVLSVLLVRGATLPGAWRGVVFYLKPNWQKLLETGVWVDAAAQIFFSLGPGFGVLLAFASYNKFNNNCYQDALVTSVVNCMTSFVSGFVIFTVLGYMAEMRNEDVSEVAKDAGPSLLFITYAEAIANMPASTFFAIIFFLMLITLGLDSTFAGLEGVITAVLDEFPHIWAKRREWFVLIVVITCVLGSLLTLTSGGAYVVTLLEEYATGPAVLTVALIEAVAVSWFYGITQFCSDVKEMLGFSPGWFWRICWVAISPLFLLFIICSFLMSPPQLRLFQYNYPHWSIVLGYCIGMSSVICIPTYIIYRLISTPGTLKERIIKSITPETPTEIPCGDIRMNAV
Sequence of Transporter (Rattus norvegicus) (F1LNR9 as listed by the source): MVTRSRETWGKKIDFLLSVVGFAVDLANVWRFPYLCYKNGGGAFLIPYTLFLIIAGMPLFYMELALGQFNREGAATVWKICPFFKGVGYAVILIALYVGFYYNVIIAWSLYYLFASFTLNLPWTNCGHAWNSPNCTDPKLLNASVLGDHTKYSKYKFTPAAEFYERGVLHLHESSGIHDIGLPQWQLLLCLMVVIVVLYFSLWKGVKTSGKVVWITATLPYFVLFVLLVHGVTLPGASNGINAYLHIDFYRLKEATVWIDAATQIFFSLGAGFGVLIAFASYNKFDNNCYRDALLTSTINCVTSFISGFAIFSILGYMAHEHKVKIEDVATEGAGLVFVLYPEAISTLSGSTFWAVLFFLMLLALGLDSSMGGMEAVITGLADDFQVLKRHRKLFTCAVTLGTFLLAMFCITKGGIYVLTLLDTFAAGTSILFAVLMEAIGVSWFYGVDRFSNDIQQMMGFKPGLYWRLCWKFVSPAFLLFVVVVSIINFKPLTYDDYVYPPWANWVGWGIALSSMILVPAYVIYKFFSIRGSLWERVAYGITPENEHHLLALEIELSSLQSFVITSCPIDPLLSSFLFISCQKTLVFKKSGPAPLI
Sequence of Sodium-dependent dopamine transporter (Rattus norvegicus) (P23977 whole entry): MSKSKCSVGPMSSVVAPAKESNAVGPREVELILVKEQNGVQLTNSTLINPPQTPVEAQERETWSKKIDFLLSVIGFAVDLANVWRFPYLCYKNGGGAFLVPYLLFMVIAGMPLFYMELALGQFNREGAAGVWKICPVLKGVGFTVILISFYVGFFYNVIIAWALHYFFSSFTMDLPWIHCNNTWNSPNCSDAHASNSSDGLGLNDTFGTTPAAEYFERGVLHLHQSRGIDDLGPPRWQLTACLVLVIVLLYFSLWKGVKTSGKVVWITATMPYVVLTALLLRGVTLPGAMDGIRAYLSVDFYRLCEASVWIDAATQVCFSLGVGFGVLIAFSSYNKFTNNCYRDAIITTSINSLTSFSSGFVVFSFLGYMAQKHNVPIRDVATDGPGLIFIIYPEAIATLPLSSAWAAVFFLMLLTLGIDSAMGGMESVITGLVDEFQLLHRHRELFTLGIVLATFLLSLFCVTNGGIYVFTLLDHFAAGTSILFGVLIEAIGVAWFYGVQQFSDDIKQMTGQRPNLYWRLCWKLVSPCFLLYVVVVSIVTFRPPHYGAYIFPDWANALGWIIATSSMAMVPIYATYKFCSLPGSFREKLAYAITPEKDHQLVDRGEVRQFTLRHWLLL

CCOC[C@@H]1[C@@H](c2ccc(Cl)c(Cl)c2)C[C@@H]2CC[C@H]1N2C
25 to 75%: all assays above

CN1[C@H]2CC[C@@H]1[C@H](CSc1ccccc1)[C@@H](c1ccc(Cl)c(Cl)c1)C2
25 to 75%: all assays above

COC[C@@H]1[C@@H](c2ccc(Cl)c(Cl)c2)C[C@@H]2CC[C@H]1N2C
25 to 75%: all assays above
